In patent US8710043B2, “TRPM8 antagonists and their use in treatments” (Amgen Inc., priority 2011, dated 2014):
pIC50: −log10 of the molar value.

Molecular target: T1, human TRPM8 (Homo sapiens, UniProt Q7Z2W7)
T1 construct: expressed in transfected cells; host or cells: Chinese hamster ovary (CHO) cells, T-REx tetracycline-inducible system, co-transfected with aequorin
Test: Luminescence readout assay for measuring intracellular calcium, icilin activation
Type: cell-based
Conditions: CHO cells expressing human TRPM8, aequorin luminescence, 1 μM icilin activation; read-out: hTRPM8 IC50
Outline: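 The read-out was luminescence reporting intracellular calcium, recorded by a CCD-based luminometer. Compounds were preincubated for 2.5 min before agonist challenge with 1 μM icilin. Human TRPM8 was expressed in a stable T-REx CHO line, induced with 0.5 μg/mL tetracycline the day before.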

T1 sequence (Q7Z2W7 whole entry): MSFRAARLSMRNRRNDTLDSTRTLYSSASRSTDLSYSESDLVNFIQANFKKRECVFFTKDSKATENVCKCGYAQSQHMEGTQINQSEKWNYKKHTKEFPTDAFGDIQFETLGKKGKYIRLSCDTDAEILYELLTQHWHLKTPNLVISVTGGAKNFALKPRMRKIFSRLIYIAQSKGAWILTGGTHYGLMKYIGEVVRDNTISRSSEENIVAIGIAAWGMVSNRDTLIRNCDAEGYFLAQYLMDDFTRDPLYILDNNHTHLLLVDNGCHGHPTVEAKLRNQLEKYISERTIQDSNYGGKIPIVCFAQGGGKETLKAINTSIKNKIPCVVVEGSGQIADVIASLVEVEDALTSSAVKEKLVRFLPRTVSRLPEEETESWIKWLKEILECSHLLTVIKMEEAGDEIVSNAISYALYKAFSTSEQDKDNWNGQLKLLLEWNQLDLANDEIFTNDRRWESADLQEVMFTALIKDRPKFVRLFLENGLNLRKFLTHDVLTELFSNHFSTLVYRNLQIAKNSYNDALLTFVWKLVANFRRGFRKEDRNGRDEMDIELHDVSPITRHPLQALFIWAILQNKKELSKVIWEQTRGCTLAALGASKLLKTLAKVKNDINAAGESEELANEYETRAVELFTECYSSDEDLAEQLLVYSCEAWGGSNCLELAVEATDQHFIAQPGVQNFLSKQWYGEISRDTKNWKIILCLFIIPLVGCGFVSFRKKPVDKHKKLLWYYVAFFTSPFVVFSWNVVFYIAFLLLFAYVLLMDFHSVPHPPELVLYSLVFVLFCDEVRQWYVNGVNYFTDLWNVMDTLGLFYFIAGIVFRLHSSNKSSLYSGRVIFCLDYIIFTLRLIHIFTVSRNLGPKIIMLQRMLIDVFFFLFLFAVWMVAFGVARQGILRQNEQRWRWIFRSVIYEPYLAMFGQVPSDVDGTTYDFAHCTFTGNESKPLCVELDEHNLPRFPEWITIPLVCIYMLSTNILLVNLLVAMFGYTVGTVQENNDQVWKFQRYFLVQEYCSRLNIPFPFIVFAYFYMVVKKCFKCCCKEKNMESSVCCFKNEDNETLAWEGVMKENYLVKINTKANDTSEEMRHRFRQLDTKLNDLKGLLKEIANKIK

Row | Structure (SMILES) | pIC50
1 | Cc1ccc(F)c([C@@H](NC(=O)c2ccc(=O)[nH]c2)c2ccc(C(F)(F)F)cc2)n1 [Example 410, (S)-N-((3-fluoro-6-methylpyridin-2-yl)(4-(trifluoromethyl)phenyl)methyl)-6-oxo-1,6-dihydropyridine-3-carboxamide] | 7.14
2 | O=C(N[C@@H](c1ccc(C(F)(F)F)cc1)c1ncccc1C(F)(F)F)c1ccc(F)cc1 [Example 183, (S)-4-fluoro-N-((4-(trifluoromethyl)phenyl)(3-(trifluoromethyl)pyridin-2-yl)methyl)benzamide] | 7.40
3 | O=C(CCc1c[nH]cn1)N[C@@H](c1ccc(C(F)(F)F)cc1)c1ncccc1C(F)(F)F [Example 155, (S)-3-(1H-imidazol-4-yl)-N-((4-(trifluoromethyl)phenyl)(3-(trifluoromethyl)pyridin-2-yl)methyl)propanamide 2,2,2-trifluoroacetate] | 5.84
4 | O=C(N[C@@H](c1ccc(OC(F)(F)F)cc1)c1ncccc1F)c1ccc(=O)[nH]n1 [Example 350, (S)-N-((3-fluoropyridin-2-yl)(4-(trifluoromethoxy)phenyl)methyl)-6-oxo-1,6-dihydropyridazine-3-carboxamide] | 7.64
5 | O=C(N[C@@H](c1cnc2cccc(Cl)c2c1)c1ncccc1C(F)(F)F)c1ccc2cccnc2c1 [Example 9, (S)-N-((5-chloroquinolin-3-yl)(3-(trifluoromethyl)pyridin-2-yl)methyl)quinoline-7-carboxamide] | 6.84
6 | O=C(O)c1cccc(C(=O)N[C@@H](c2ccc(C(F)(F)F)cc2)c2ncccc2F)c1 [Example 207, (S)-3-(((3-fluoropyridin-2-yl)(4-(trifluoromethyl)phenyl)methyl)carbamoyl)benzoic acid] | 6.92
7 | O=C(N[C@@H](c1ccc(C(F)(F)F)cc1)c1ncccc1Br)c1ccc2cccnc2c1 [Example 195, (S)—N-((3-bromopyridin-2-yl)(4-(trifluoromethyl)-phenyl)methyl)quinoline-7-carboxamide] | 7.30
8 | CC#Cc1cccnc1[C@@H](NC(=O)c1ccc2cccnc2c1)c1ccc(C(F)(F)F)cc1 [Example 97, (S)-N-((3-(prop-1-yn-1-yl)pyridin-2-yl)(4-(trifluoromethyl)phenyl)methyl)quinoline-7-carboxamide 2,2,2-trifluoroacetate] | 6.92
9 | O=C(N[C@@H](c1cc(F)cc(C(F)(F)F)c1)c1ncccc1F)c1ccc(=O)[nH]c1 [Example 327, (S)-N-((3-fluoro-5-(trifluoromethyl)phenyl)(3-fluoropyridin-2-yl)methyl)-6-oxo-1,6-dihydropyridine-3-carboxamide] | 6.52
10 | CCNc1ccc(C(=O)N[C@@H](c2ccc(C(F)(F)F)cc2)c2ncccc2C(F)(F)F)cn1 [Example 263, (S)-6-(Ethylamino)-N-((4-(trifluoromethyl)phenyl)(3-(trifluoromethyl)pyridin-2-yl)methyl)nicotinamide] | 6.88
11 | CC(C)(C)OC(=O)N1CC(CC(=O)N[C@@H](c2ccc(C(F)(F)F)cc2)c2ncccc2C(F)(F)F)C1 [Example 229, (S)-tert-butyl 3-(2-oxo-2-(((4-(trifluoromethyl)phenyl)(3-(trifluoromethyl)pyridin-2-yl)methyl)amino)ethyl)azetidine-1-carboxylate] | 6.45
12 | O=C(N[C@@H](c1ccc(OC(F)(F)F)c(F)c1)c1ncccc1F)c1cc2oc(=O)[nH]c2cn1 [Example 438, (S)—N-((3-Fluoro-4-(trifluoromethoxy)phenyl)(3-fluoropyridin-2-yl)methyl)-2-oxo-2,3-dihydrooxazolo[4,5-c]pyridine-6-carboxamide] | 7.94
13 | O=C(N[C@@H](c1ccc(OC(F)(F)F)c(F)c1)c1ncccc1Br)c1ccc2oc(=O)[nH]c2c1 [Example 384, (S)-N-((3-bromopyridin-2-yl)(3-fluoro-4-(trifluoromethoxy)phenyl)methyl)-2-oxo-2,3-dihydrobenzo[d]oxazole-5-carboxamide] | 8.24
